Measured values from patent US12649727B2, “EFGR inhibitor, preparation method therefor and application thereof” (Abbisko Therapeutics Co., Ltd, priority 2020, dated 2026).
pIC50: −log10 of the molar value.

Assays:
Format in all cases: cell-based
A431 (EGFR-WT) = assay: Proliferation experiment, A431 cell line (CellTiter-Glo); settings: Homo sapiens, A-431; A431 cells, cultured for 72 hrs with compound, CTG analysis
[1] = biological target: Ba/F3 EGFR-D770-N771ins_SVD (Homo sapiens, UniProt P00533, DUP768-770, cells depend on it); assay: Proliferation experiment of Ba/F3 cell line, EGFR-D770-N771ins_SVD (CellTiter-Glo); settings: cultured for 72 hrs with compound, CTG analysis, read-out: Ba/F3 EGFR-D770-N771ins_SVD IC50
In short: (§1)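 […] Ba/F3 cells expressing EGFR insertion mutants treated 72 h at 37 °C with 9 concentrations, 3.16-fold dilutions, top 10 μM, 0.1% DMSO, in triplicate. Viability by CellTiter-Glo luminescence with T0 reference plate; IC50 (nM) from non-linear dose-response fit.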

[2] = biological target: Ba/F3 EGFR-V769_D770insASV (Homo sapiens, UniProt P00533, DUP767-769, cells depend on it); assay: Proliferation experiment of Ba/F3 cell line, EGFR-V769_D770insASV (CellTiter-Glo); settings: cultured for 72 hrs with compound, CTG analysis, read-out: Ba/F3 EGFR-V769_D770insASV IC50
In short: as §1

Chain of Ba/F3 EGFR-D770-N771ins_SVD (P00533 with tags, fused parts or gaps DUP768-770): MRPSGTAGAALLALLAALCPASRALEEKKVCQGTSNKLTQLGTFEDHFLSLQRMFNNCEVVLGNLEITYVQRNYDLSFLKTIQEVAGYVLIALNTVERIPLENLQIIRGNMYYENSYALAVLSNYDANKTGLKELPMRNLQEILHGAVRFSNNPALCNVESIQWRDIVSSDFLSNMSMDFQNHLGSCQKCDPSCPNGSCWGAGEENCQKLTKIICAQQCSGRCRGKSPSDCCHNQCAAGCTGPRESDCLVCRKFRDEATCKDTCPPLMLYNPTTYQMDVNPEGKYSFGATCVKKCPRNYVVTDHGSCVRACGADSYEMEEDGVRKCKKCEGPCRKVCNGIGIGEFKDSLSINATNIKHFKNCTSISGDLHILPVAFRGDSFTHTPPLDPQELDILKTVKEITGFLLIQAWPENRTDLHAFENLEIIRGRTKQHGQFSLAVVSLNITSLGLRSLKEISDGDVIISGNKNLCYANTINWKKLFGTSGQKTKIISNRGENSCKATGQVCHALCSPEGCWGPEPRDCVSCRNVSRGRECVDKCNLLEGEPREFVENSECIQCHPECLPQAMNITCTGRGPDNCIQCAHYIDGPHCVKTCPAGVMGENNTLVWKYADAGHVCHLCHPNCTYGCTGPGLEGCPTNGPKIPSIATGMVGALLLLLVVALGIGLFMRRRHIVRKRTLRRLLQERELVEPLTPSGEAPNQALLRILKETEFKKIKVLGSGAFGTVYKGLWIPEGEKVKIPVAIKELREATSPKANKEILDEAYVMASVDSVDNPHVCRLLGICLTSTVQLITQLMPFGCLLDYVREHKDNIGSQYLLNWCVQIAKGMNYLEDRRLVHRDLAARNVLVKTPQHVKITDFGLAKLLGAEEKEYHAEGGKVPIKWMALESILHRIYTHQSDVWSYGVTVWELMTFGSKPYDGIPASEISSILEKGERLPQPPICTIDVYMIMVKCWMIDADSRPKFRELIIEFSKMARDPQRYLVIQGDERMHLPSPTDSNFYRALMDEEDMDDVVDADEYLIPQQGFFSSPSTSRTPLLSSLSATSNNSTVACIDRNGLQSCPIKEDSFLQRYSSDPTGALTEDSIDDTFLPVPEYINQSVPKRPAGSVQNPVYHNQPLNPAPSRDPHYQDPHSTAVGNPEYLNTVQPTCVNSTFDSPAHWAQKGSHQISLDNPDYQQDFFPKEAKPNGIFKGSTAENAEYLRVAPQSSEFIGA
Chain of Ba/F3 EGFR-V769_D770insASV (P00533 with tags, fused parts or gaps DUP767-769): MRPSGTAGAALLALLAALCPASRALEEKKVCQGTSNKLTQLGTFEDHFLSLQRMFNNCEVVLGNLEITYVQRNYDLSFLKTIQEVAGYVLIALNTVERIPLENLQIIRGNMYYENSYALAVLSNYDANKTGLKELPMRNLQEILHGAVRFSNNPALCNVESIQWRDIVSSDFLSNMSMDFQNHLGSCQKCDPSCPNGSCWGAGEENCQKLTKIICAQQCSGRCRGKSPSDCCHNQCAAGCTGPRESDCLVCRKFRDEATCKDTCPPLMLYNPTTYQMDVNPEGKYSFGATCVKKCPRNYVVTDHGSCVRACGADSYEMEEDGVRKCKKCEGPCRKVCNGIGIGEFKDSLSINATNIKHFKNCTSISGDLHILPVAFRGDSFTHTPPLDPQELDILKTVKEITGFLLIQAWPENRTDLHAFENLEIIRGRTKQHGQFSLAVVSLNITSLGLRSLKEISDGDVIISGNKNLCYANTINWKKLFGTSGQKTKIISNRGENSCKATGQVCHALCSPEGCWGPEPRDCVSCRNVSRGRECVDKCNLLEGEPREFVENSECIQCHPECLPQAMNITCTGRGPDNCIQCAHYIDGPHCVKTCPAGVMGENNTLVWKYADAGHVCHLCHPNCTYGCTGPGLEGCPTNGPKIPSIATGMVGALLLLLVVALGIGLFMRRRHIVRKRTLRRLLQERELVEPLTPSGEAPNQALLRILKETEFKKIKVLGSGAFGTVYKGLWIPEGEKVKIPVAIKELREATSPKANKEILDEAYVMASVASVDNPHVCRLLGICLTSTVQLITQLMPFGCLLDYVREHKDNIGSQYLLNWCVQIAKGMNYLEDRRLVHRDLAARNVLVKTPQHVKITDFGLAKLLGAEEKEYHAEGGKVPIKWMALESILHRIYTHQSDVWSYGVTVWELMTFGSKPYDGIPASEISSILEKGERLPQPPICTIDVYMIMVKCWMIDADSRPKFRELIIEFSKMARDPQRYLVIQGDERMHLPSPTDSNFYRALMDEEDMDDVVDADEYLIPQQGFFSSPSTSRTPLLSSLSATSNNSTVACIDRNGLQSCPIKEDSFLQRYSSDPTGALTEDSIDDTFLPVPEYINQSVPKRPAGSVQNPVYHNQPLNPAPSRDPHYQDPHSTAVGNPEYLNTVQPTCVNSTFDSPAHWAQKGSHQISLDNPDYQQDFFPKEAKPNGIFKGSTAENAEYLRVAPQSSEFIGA

| pIC50 (A431 (EGFR-WT)) | GI50 [1] [nM] | GI50 [2] [nM] | SMILES |
| --- | --- | --- | --- |
| 7.06 | 2.4 | 7.8 | C=CC(=O)Nc1cc2c(Nc3ccnc(-c4ccccc4F)c3)ncnc2cc1O[C@@H]1CCN(C(C)C)C1 [Example 125, (R)-N-(4-((2-(2-fluorophenyl)pyridin-4-yl)amino)-7-((1-isopropylpyrrolidin-3-yl)oxy)quinazolin-6-yl)acrylamide] |
| 7.68 | 9.5 | 11.5 | CN(C)C/C=C/C(=O)Nc1cc2c(Nc3ccnc(-c4ccccc4F)c3)ncnc2cc1O[C@@H]1CCN(C)C1 [Example 67, (R,E)-4-(dimethylamino)-N-(4-((2-(2-fluorophenyl)pyridin-4-yl)amino)-7-((1-methylpyrrolidin-3-yl)oxy)quinazolin-6-yl)but-2-enamide] |
| 7.58 | 1.1 | 3.3 | C=CC(=O)Nc1cc2c(Nc3ccnc(-c4ccccc4F)c3)ncnc2cc1O[C@@H]1CCN(C2COC2)C1 [Example 114, (R)—N-(4-((2-(2-fluorophenyl)pyridin-4-yl)amino)-7-((1-(oxetan-3-yl)pyrrolidin-3-yl)oxy)quinazolin-6-yl)acrylamide] |
| 6.06 | 14.5 | 51.1 | C=C(F)C(=O)Nc1cc2c(Nc3ccnc(-c4ccccc4F)c3)ncnc2cc1F [Example 93, 2-fluoro-N-(7-fluoro-4-((2-(2-fluorophenyl)pyridin-4-yl)amino)quinazolin-6-yl)acrylamide] |
| 5.82 | 2 | 6.3 | C=CC(=O)Nc1cc2c(Nc3ccnc(-c4ccccc4F)c3)ncnc2cc1N1CCC(N2CCOCC2)CC1 [Example 98, N-(4-((2-(2-fluorophenyl)pyridin-4-yl)amino)-7-(4-morpholinopiperidin-1-yl)quinazolin-6-yl)acrylamide] |

More lines, now with the values behind:

| SMILES | pIC50 (A431 (EGFR-WT)) | GI50 [1] [nM] | GI50 [2] [nM] |
| --- | --- | --- | --- |
| C=CC(=O)Nc1cc2c(Nc3cccc(-c4c(F)cccc4F)c3)ncnc2cc1OCCCN1CCN(CC)CC1 [Example 28, N-(4-((2′,6′-difluoro-[1,1′-biphenyl]-3-yl)amino)-7-(3-(4-ethylpiperazin-1-yl)propoxy)quinazolin-6-yl)acrylamide] | 6.44 | 22.6 | 21 |
| C=CC(=O)Nc1cc2c(Nc3ccnc(-c4ccc(F)cc4F)c3)ncnc2cc1OCCCN1CCN(C)CC1 [Example 79, N-(4-((2-(2,4-difluorophenyl)pyridin-4-yl)amino)-7-(3-(4-methylpiperazin-1-yl)propoxy)quinazolin-6-yl)acrylamide] | 7.49 | 4.2 | 6.8 |
| C=CC(=O)Nc1cc2c(Nc3ccc(F)c(-c4ccc(F)cc4)c3)ncnc2cc1OCCCN1CCOCC1 [Example 41, N-(4-((4′,6-difluoro-[1,1′-biphenyl]-3-yl)amino)-7-(3-morpholinopropoxy)quinazolin-6-yl)acrylamide] | 6.03 | 19.2 | 36.5 |
| C=CC(=O)Nc1cc2c(Nc3ccnc(-c4ccccc4F)c3)ncnc2cc1N1CCC(N2CCN(C)CC2)CC1 [Example 99, N-(4-((2-(2-fluorophenyl)pyridin-4-yl)amino)-7-(4-(4-methylpiperazin-1-yl)piperidin-1-yl)quinazolin-6-yl)acrylamide] | 6.50 | 2.8 | 6.1 |
| C=CC(=O)Nc1cc2c(Nc3cccc(-c4c(F)cccc4F)c3)ncnc2cc1OCCN1CCOCC1 [Example 26, N-(4-((2′,6′-difluoro-[1,1′-biphenyl]-3-yl)amino)-7-(2-morpholinoethoxy)quinazolin-6-yl)acrylamide] | 7.48 | 52.1 | 97.4 |
| C=CC(=O)Nc1cc2c(Nc3ccc(F)c(-c4ccccc4F)c3)ncnc2cc1OCCCN1CCN(C)CC1 [Example 39, N-(4-((2′,6-difluoro-[1,1′-biphenyl]-3-yl)amino)-7-(3-(4-methylpiperazin-1-yl)propoxy)quinazolin-6-yl)acrylamide] | 6.57 | 18 | 25.6 |
